Laboratory results published in PMC9228955, “Synthesis, Physicochemical, Labeling and In Vivo Characterization of ^44Sc-Labeled DO3AM-NI as a Hypoxia-Sensitive PET Probe” (Pharmaceuticals, 2022).

Assays:
[1] = Octanol/water partition coefficient (logP) of labeled complexes; type: physicochemical; details: 1-octanol/water, triplicates
Protocol: (§1) Subsequently, the octanol/water partition coefficient (logP) of the labeled complexes was determined to be −3.89 for [^68Ga]Ga(DO3AM-NI) and −2.59 for [^44Sc]Sc(DO3AM-NI). […] To assess the labeled compounds’ stability, the chelates were mixed with the solution of mouse plasma, Na2H2EDTA and oxalic acid, respectively. Aliquots were then taken at different time points (0, 60, 120 and 240 min) and injected into the radio-HPLC column, and the chromatograms were analyzed. After 240 min, the RCP of the samples was above 93% in all three cases.
A 10 µL volume of [^68Ga]Ga(DO3AM-NI) and [^44Sc]Sc(DO3AM-NI) solution (~5 MBq) was mixed with 500 µL of 1-octanol and 490 µL of water in an Eppendorf vial, respectively. The mixture was shaken with a vortex shaker (600 rpm) for 10 min and centrifuged (6000 rpm) for 5 min. Then, 100 µL from the octanol phase and 1 μL from the aqueous phase were pipetted into vials, and the aqueous aliquot was diluted to 100 µL with water in order to minimize the effects of sample geometry and the high difference of activity concentrations in the two solvents. The radioactivity of the fractions was determined with a gamma counter. The measurements were performed in triplicates for both labeled compounds.

[2] = Stability of labeled complexes in mouse plasma, Na2H2EDTA and oxalic acid by radio-HPLC; type: in vitro ADME
Protocol: as §1
A 10 µL volume of [^68Ga]Ga(DO3AM-NI) and [^44Sc]Sc(DO3AM-NI) solution was added to the solution of 90 µL of mouse plasma, Na2H2EDTA (0.01 M) and oxalic acid (0.01 M), respectively. Samples were analyzed by radio-HPLC at the beginning and after 60, 120 and 240 min. The analytical conditions were the same as detailed for the quality control of the labeled compound.

[3] = Ex vivo biodistribution in healthy control SCID mice; parameters: species or system CB17 SCID mice; details: mean ± SD
Protocol: Ex vivo biodistribution studies were carried out 90 min and 240 min after intravenous injection of ^44Sc- or ^68Ga-labeled DO3AM-NI, and the accumulated activities of the organs and tissues were determined using a gamma counter. By the quantitative analysis of the ex vivo data, significant differences were found between the %ID/g values when ^44Sc- and ^68Ga-labeled DO3AM-NI accumulations were compared. […] In contrast, e.g., [^18F]fluorine- [28], [^131I]iodine- [29], [^99mTc]technetium- [30] and [^64Cu]copper-labeled nitroimidazole-based probes, due to their chemical properties, were mainly metabolized via the liver, and the large abdominal accumulation impaired the evaluation of abdominal tumors in the PET images. The ^44Sc- and ^68Ga-labeled nitroimidazole derivatives had more favorable properties in terms of the reporting and evaluation of PET images and due to their rapid elimination through the urinary system.
(§2) For the determination of ex vivo biodistribution of the radiotracers, control and KB tumor-bearing mice were injected intravenously with 8.42 ± 0.38 MBq of ^68Ga- or ^44Sc-labeled DO3AM-NI via the tail vein. Mice were euthanized with 5% isoflurane 90 min or 4 h after intravenous radiotracer injection. Three tissue samples were taken from the selected organs, and their weight and radioactivity were measured with a calibrated gamma counter (Perkin-Elmer Packard Cobra, Waltham, MA, USA). The radiotracer uptake was expressed as %ID/g tissue.

KB tumors [4] = assay: In vivo PET/MRI imaging of KB tumor-bearing mice, quantitative SUV analysis; parameters: species or system CB17 SCID mice; details: 240 min after injection
Protocol: The tumor-specific accumulation of [^44Sc]Sc(DO3AM-NI) and [^68Ga]Ga(DO3AM-NI) was investigated by PET/MRI imaging 90 and 240 min after radiotracer injection using KB tumor-bearing mice. The subcutaneously growing KB tumors were clearly visualized using [^44Sc]Sc(DO3AM-NI) 90 and 240 min post injection with relatively higher SUVmean and SUVmax values (SUVmean: 1.46 ± 0.32 and SUVmax: 2.35 ± 0.47 at 90 min and SUVmean: 0.67 ± 0.03 and SUVmax: 1.55 ± 0.28 at 240 min). Lower accumulation was found in the same KB tumors by using the ^68Ga-labeled molecule (SUVmean: 0.79 ± 0.10, SUVmax: 1.94 ± 0.40 at 90 min and SUVmean: 0.51 ± 0.09 and SUVmax: 1.23 ± 0.10 at 240 min); however, this difference between the radiotracers was not significant (Figure 4E). […] In contrast, no significant differences were found between the T/M SUV values of the two radiotracers 90 min post injection (Figure 4F).
(§3) For tumor induction, SCID mice were injected with 5x10^6 KB tumor cells in 0.9% NaCl (100 µL) subcutaneously into the left shoulder area. The tumor growth was assessed by caliper measurements, and tumor size was calculated using the following formula: (largest diameter × smallest diameter^2)/2. In vivo experiments were carried out approximately 13 ± 1 days after […] injection of tumor cells at the tumor volume of approximately 110 mm^3.
For in vivo imaging studies, healthy control and KB tumor-bearing CB17 SCID mice were injected with 8.42 ± 0.38 MBq of ^68Ga- or ^44Sc-labeled DO3AM-NI via the lateral tail vein 13 ± 1 days after the inoculation of KB tumor cells. Then, 65 and 225 min after radiotracer injection, mice were anaesthetized by 3% isoflurane (Forane) with a dedicated small animal anesthesia device and whole-body T1-weighted MRI scans were performed (3D GRE EXT multi-FOV; TR/TE 15/2 ms; phase: 100; FOV 60 mm; NEX 2) using the preclinical nanoScan PET/MRI system with 1 Tesla magnetic field (Mediso Ltd., Hungary). After MRI imaging, 20 min static whole-body PET scans were acquired (90 min and 4 h after radiotracer injection).
Quantitative radiotracer uptake was expressed in terms of standardized uptake value (SUV), SUV = [VOI activity (Bq/mL)]/[injected activity (Bq)/animal weight (g)], assuming a density of 1 g/mL. Volumes of interest (VOI) were manually drawn around the edge of the organ or tumor activity using the InterView™ FUSION (Mediso Ltd., Hungary) image analysis software. Tumor-to-muscle (T/M) ratios were computed as the ratio between the activity in the tumor VOI and in the background (muscle) VOI. Skeletal muscles of the right shoulder area were used as background.

KB tumors [5] = assay: Ex vivo biodistribution in KB tumor xenografts; parameters: species or system CB17 SCID mice; details: for KB tumor uptake: 13 ± 1 days after subcutaneous tumor induction, n = 5, mean ± SD
Protocol: For the assessment of the accumulation in the tumors of [^44Sc]Sc(DO3AM-NI) and [^68Ga]Ga(DO3AM-NI), ex vivo biodistribution studies were performed 90 and 240 min post injection using KB tumor xenografts.
as §3, §2

octanol/water partition coefficient (logP) [1]: −2.59
RCP after 240 min ([2]; Na2H2EDTA (0.01 M)): above 93%
RCP after 240 min ([2]; mouse plasma): above 93%
RCP after 240 min ([2]; oxalic acid (0.01 M)): above 93%
Blood uptake ([3]; 90 min after i.v. injection): 0.08 ± 0.01 %ID/g
Fat uptake ([3]; 90 min after i.v. injection): 0.01 ± 0.001 %ID/g
Heart uptake ([3]; 90 min after i.v. injection): 0.04 ± 0.01 %ID/g
Kidney uptake ([3]; 90 min after i.v. injection): 1.17 ± 0.41 %ID/g
Large intestine uptake ([3]; 90 min after i.v. injection): 0.05 ± 0.01 %ID/g
Liver uptake ([3]; 90 min after i.v. injection): 0.14 ± 0.09 %ID/g
Lung uptake ([3]; 90 min after i.v. injection): 0.10 ± 0.04 %ID/g
Muscle uptake ([3]; 90 min after i.v. injection): 0.01 ± 0.01 %ID/g
Small intestine uptake ([3]; 90 min after i.v. injection): 0.10 ± 0.05 %ID/g
Spleen uptake ([3]; 90 min after i.v. injection): 0.07 ± 0.02 %ID/g
Stomach uptake ([3]; 90 min after i.v. injection): 0.09 ± 0.03 %ID/g
Urine uptake ([3]; 90 min after i.v. injection): 57.78 ± 12.41 %ID/g
Blood uptake ([3]; 240 min after i.v. injection): 0.03 ± 0.01 %ID/g
Fat uptake ([3]; 240 min after i.v. injection): 0.01 ± 0.01 %ID/g
Heart uptake ([3]; 240 min after i.v. injection): 0.03 ± 0.01 %ID/g
Kidney uptake ([3]; 240 min after i.v. injection): 0.89 ± 0.23 %ID/g
Large intestine uptake ([3]; 240 min after i.v. injection): 0.04 ± 0.004 %ID/g
Liver uptake ([3]; 240 min after i.v. injection): 0.20 ± 0.04 %ID/g
Lung uptake ([3]; 240 min after i.v. injection): 0.04 ± 0.003 %ID/g
Muscle uptake ([3]; 240 min after i.v. injection): 0.007 ± 0.002 %ID/g
Small intestine uptake ([3]; 240 min after i.v. injection): 0.03 ± 0.01 %ID/g
Spleen uptake ([3]; 240 min after i.v. injection): 0.06 ± 0.01 %ID/g
Stomach uptake ([3]; 240 min after i.v. injection): 0.03 ± 0.005 %ID/g
Urine uptake ([3]; 240 min after i.v. injection): 6.23 ± 1.25 %ID/g
tumor-to-muscle ratio T/M SUVmax (KB tumors [4]): 129.68 ± 26.11
tumor-to-muscle ratio T/M SUVmean (KB tumors [4]): 182.67 ± 23.50
T/M (tumor-to-muscle ratio) (KB tumors [5]; 90 min after injection): 79.30 ± 5.26
KB tumor uptake (KB tumors [5]; 90 min after injection): 0.82 ± 0.11 %ID/g
T/M (tumor-to-muscle ratio) (KB tumors [5]; 240 min after injection): 99.35 ± 5.14
KB tumor uptake (KB tumors [5]; 240 min after injection): 0.70 ± 0.14 %ID/g
T/M ratio relative to the T/M ratio of [^68Ga]Ga(DO3AM-NI) (KB tumors [5]; at each time point (90 and 240 min)): 10–15 fold
SMILES: O=C([O-])CN1CCN(CC(=O)[O-])CCN(CC(=O)NCCn2ccnc2[N+](=O)[O-])CCN(CC(=O)[O-])CC1.[44Sc+3] [[^44Sc]Sc(DO3AM-NI)]
